From US7553972B2, “Benzamide inhibitors of the P2X7 receptor” (Pfizer, Inc., priority 2003, dated 2009)

molecular target: T1, P2X7 receptor (Homo sapiens, UniProt Q99572); test: Inhibition of ATP-stimulated IL-1β release from LPS-activated blood monocytes (P2X7 antagonist activity, ELISA readout); type: cell-based; details: not given
T1 construct: endogenous in cells
T1 sequence (Q99572 1-595): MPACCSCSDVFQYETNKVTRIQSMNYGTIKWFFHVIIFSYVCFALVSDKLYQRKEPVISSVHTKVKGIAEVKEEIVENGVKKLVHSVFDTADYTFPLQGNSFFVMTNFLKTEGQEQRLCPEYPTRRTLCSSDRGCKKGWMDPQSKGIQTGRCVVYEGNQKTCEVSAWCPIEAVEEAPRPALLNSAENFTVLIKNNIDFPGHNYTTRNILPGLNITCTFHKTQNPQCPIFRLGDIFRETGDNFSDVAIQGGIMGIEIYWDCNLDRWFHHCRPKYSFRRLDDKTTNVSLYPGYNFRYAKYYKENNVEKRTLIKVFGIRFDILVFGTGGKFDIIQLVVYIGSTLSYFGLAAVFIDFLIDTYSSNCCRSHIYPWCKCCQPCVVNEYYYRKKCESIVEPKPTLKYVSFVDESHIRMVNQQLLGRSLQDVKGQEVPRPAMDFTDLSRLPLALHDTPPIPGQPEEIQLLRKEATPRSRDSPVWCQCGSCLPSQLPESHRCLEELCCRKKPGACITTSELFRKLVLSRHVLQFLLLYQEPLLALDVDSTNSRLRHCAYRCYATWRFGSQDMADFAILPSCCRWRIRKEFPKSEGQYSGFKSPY
Procedure: In like manner, the compounds of the invention can be tested for antagonist activity at the P2X7 receptor using the cytokine IL-1β as the readout. Blood collected from normal volunteers in the presence of heparin is fractionated using lymphocyte separation medium obtained from Organon Technica (Westchester, Pa.). […] The resulting cell pellet was suspended in 10 ml of Maintenance Medium and a cell count was performed. In an average experiment, 2×10^5 mononuclear cells are seeded into each well of 96-well plates in a total volume of 0.1 ml. Monocytes are allowed to adhere for 2 hours, after which the supernatants are discarded and the attached cells are rinsed twice and then incubated in Maintenance Medium overnight at 37° C. in a 5% CO2 environment.
(§1) The cultured monocytes can be activated with 10 ng/ml LPS (E. coli serotype 055:B5; Sigma Chemicals, St. Louis, Mo.). […] ATP then is introduced (from a 100 mM stock solution, pH 7) to achieve a final concentration of 2 mM and the plate is incubated at 37° C. for an additional 3 hours. Media were harvested and clarified by centrifugation, and their IL-1[…] content was determined by ELISA (R&D Systems; Minneapolis, Minn.).
Blood was collected from normal volunteers in the presence of heparin, and was fractionated using lymphocyte separation medium obtained from Organon Technica (Westchester, Pa.). […] The resulting cell pellet was suspended in 10 ml of Maintenance Medium and a cell count was performed. Approximately, 2×10^5 mononuclear cells were seeded into each well of 96-well plates in a total volume of 0.1 ml. Monocytes were allowed to adhere for 2 hours, after which the supernatants were discarded and the attached cells were rinsed twice and then incubated in Maintenance Medium overnight at 37° C. in a 5% CO2 environment.
as §1, with “monocytes were” for “monocytes can be”, “then was” for “then is”, “plate was” for “plate is”, “their IL-1β” for “their IL-1[…]”

`Cc1nc(-c2ccc(Cl)c(C(=O)NCC3(O)CCCCCC3)c2)cs1` [Example 59, 2-Chloro-N-(1-hydroxy-cycloheptylmethyl)-5-(2-methyl-thiazol-4-yl)-benzamide] gave an IC50 of 280 nM.

same assay, conditions: monocytes from normal volunteers, 10 ng/ml LPS 2 h, compound 30 min, 2 mM ATP 3 h, IL-1β by ELISA, triplicate wells; read-out: IC50 (inhibit 50% of the stimulation of the release of IL-1β from monocytes by ATP)

Point of comparison: `Cc1cc(-c2ccc(Cl)c(C(=O)NCC3(O)CCCCCC3)c2)on1` [Example 12, 2-Chloro-N-(1-hydroxy-cycloheptylmethyl)-5-(3-methyl-isoxazol-5-yl)-benzamide], IC50 240 nM. Against it:
- Cc1cc(-c2ccc(Cl)c(C(=O)NCC3(O)CCCCCC3)c2)nn1CC(O)CN (centres unmarked) [Example 44, 5-[1-(3-Amino-2-hydroxy-propyl)-5-methyl-1H-pyrazol-3-yl]-2-chloro-N-(1-hydroxy-cycloheptylmethyl)-benzamide] — 96-fold lower, 2.5 nM
- Cc1cc(-c2ccc(Cl)c(C(=O)NCC3(O)CCCCCC3)c2)nn1CC#N [Example 36, 2-Chloro-5-(1-cyanomethyl-5-methyl-1H-pyrazol-3-yl)-N-(1-hydroxy-cycloheptylmethyl)-benzamide] — 4.7-fold lower, 51 nM
- O=C(NCC1(O)CCCCCC1)c1cc(-c2ccnn2CCO)ccc1Cl [Example 26, 2-Chloro-N-(1-hydroxy-cycloheptylmethyl)-5-[2-(2-hydroxy-ethyl)-2H-pyrazol-3-yl]-benzamide] — 1.6-fold higher, 373 nM
- Cc1ccc(C2(CNC(=O)c3cc(-c4cc[nH]n4)ccc3Cl)CCCCC2)cc1 [Example 17, 2-Chloro-5-(1H-pyrazol-3-yl)-N-(1-p-tolyl-cyclohexylmethyl)-benzamide] — 13-fold lower, 18 nM
- O=C(NCC1(O)CCCCCC1)c1cc(-c2cc[nH]n2)ccc1Cl [Example 19, 2-Chloro-N-(1-hydroxy-cycloheptylmethyl)-5-(1H-pyrazol-3-yl)-benzamide] — within 1.5-fold, 180 nM
- CCc1cc(-c2ccc(Cl)c(C(=O)NCCc3ccccc3Cl)c2)[nH]n1 [Example 16, 2-Chloro-N-[2-(2-chloro-phenyl)-ethyl]-5-(5-ethyl-2H-pyrazol-3-yl)-benzamide] — 1.5-fold higher, 370 nM
- Cc1cc(-c2ccc(Cl)c(C(=O)NCC3(O)CCCCCC3)c2)nn1C[C@@](C)(O)CO [Example 45, 2-Chloro-5-[1-(2,3-dihydroxy-2-methyl-propyl)-5-methyl-1H-pyrazol-3-yl]-N-(1-hydroxy-cycloheptylmethyl)-benzamide] — 40-fold lower, 6 nM
- CNC(=O)CNC(=O)Cn1nc(-c2ccc(Cl)c(C(=O)NCC3(O)CCCCCC3)c2)cc1C [Example 49, 2-Chloro-N-(1-hydroxy-cycloheptylmethyl)-5-{5-methyl-1-[(methylcarbamoylmethyl-carbamoyl)-methyl]-1H-pyrazol-3-yl}-benzamide] — 48-fold lower, 5 nM
- Cc1cc(-c2ccc(Cl)c(C(=O)NCC3(O)CCCCCC3)c2)n(C[C@@H](O)CO)n1 [Example 43, 2-Chloro-5-[2-(2,3-dihydroxy-propyl)-5-methyl-2H-pyrazol-3-yl]-N-(1-hydroxy-cycloheptylmethyl)-benzamide] — 1.8-fold lower, 130 nM
- Cc1cc(-c2ccc(Cl)c(C(=O)NCC3(O)CCCCCC3)c2)nn1CC(=O)NCCN(C)C [Example 47, 2-Chloro-5-{1-[(2-dimethylamino-ethylcarbamoyl)-methyl]-5-methyl-1H-pyrazol-3-yl}-N-(1-hydroxy-cycloheptylmethyl)-benzamide] — 69-fold lower, 3.5 nM
- Cc1cc(-c2ccc(Cl)c(C(=O)NCC3(O)CCCCCC3)c2)nn1C[C@@H](O)CO [Example 40, 2-Chloro-5-[1-(2,3-dihydroxy-propyl)-5-methyl-1H-pyrazol-3-yl]-N-(1-hydroxy-cycloheptylmethyl)-benzamide] — 30-fold lower, 8 nM
- O=C(NCC1(O)CCCCCC1)c1cc(-c2ccc(=O)[nH]n2)ccc1Cl [Example 5, 2-Chloro-N-(1-hydroxy-cycloheptylmethyl)-5-(6-oxo-1,6-dihydro-pyridazin-3-yl)-benzamide] — 3.9-fold higher, 930 nM
- O=C(NCCc1ccccc1Cl)c1cc(-c2cc[nH]n2)ccc1Cl [Example 18, 2-Chloro-N-[2-(2-chloro-phenyl)-ethyl]-5-(1H-pyrazol-3-yl)-benzamide] — 2.3-fold higher, 545 nM
- O=C(NCC1(O)CCCCCC1)c1cc(-c2cc(C(F)(F)F)n[nH]2)ccc1Cl [Example 23, 2-Chloro-N-(1-hydroxy-cycloheptylmethyl)-5-(5-trifluoromethyl-1H-pyrazol-3-yl)-benzamide] — within 1.5-fold, 200 nM
- NCCn1ccc(-c2ccc(Cl)c(C(=O)NCC3(O)CCCCCC3)c2)n1 [Example 32, 5-[1-(2-Amino-ethyl)-1H-pyrazol-3-yl]-2-chloro-N-(1-hydroxy-cycloheptylmethyl)-benzamide] — 6.3-fold lower, 38 nM
- O=C(NCC1(O)CCCCCC1)c1cc(-c2cc(C3CC3)[nH]n2)ccc1Cl [Example 22, 2-Chloro-5-(5-cyclopropyl-1H-pyrazol-3-yl)-N-(1-hydroxy-cycloheptylmethyl)-benzamide] — 4.8-fold lower, 50 nM
- Cc1cc(-c2ccc(Cl)c(C(=O)NCC3(O)CCCCCC3)c2)n(C[C@@H](O)CN)n1 [Example 55, 5-[2-(3-Amino-2-hydroxy-propyl)-5-methyl-2H-pyrazol-3-yl]-2-chloro-N-(1-hydroxy-cycloheptylmethyl)-benzamide] — 1.5-fold higher, 365 nM
- CC(C)(O)Cn1ccc(-c2ccc(Cl)c(C(=O)NCC3(O)CCCCCC3)c2)n1 [Example 41, 2-Chloro-N-(1-hydroxy-cycloheptylmethyl)-5-[1-(2-hydroxy-2-methyl-propyl)-1H-pyrazol-3-yl]-benzamide] — 8-fold lower, 30 nM
- COc1ccc(Cn2cc(-c3ccc(Cl)c(C(=O)NCCc4ccccc4Cl)c3)cn2)cc1 [Example 6, 2-Chloro-N-[2-(2-chloro-phenyl)-ethyl]-5-[1-(4-methoxy-benzyl)-1H-pyrazol-4-yl]-benzamide] — 5.8-fold higher, 1400 nM
- Cn1ccc(-c2ccc(Cl)c(C(=O)NCC3(O)CCCCCC3)c2)n1 [Example 29, 2-Chloro-N-(1-hydroxy-cycloheptylmethyl)-5-(1-methyl-1H-pyrazol-3-yl)-benzamide] — within 1.5-fold, 242 nM
- Cc1cc(-c2ccc(Cl)c(C(=O)NCC3(O)CCCCCC3)c2)nn1CC(=O)NC[C@H](C)O [Example 51, 2-Chloro-N-(1-hydroxy-cycloheptylmethyl)-5-{1-[(2-hydroxy-propylcarbamoyl)-methyl]-5-methyl-1H-pyrazol-3-yl}-benzamide] — 48-fold lower, 5 nM
